From patent US11878973B2, “Bicyclic compounds and their uses” (NOVARTIS AG, priority 2021, dated 2024)

Legend:
SW48 xenografts = conditions: 240 mg/kg qd oral
WRN helicase = WRN helicase (Homo sapiens (Human), UniProt Q14191); assay: In vitro enzymatic activity assay on WRN helicase (DNA dependent ATPase assay, ADP-Glo); type: biochemical; conditions: geometric means of at least 2 determinations; read-out: WRN ATPase Activity (IC50)
Procedure, shortened: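 DNA-dependent ATPase activity was measured by ADP-Glo luminescent ADP detection after a 30-min room-temperature reaction. The reaction contained 10 nM WRN (residues N517-P1238), 0.2 nM FLAP26 and 300 µM ATP at pH 7.5 with 2 mM MgCl2. Compounds were tested as 10-point half-log series in duplicate; IC50 values are geometric means from at least two independent experiments.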

SW48 cells = assay: Proliferation assay SW48 (CellTiterGlo, 96 hours); conditions: Homo sapiens, SW48, read-out: Proliferation Assay SW48 (GI50)
DLD1-WRN-KO cells = assay: Proliferation assay DLD1-WRN-KO (CellTiterGlo, 96 hours; off-target effects); conditions: Homo sapiens, read-out: Proliferation Assay DLD1-WRN-KO (GI50)
Experimental: The WRN-knockdown insensitive colon carcinoma cell line DLD-1 (RRID: CVCL_0248) was obtained from the Korean Cell Line Bank (KCLB), and used to generate a derivative in which the endogenous WRN gene copies were knocked out by CRISPR-mediated editing using standard CRISPR methods. The resulting cell line, DLD1-WRN—KO, was used to assess potential off-target compound effects.
All cells were maintained at 37° C. in a humidified 5% CO2 incubator.
For data analysis, the assay background signal that was determined in wells containing medium, but no cells, was subtracted from all other data points prior to further calculations. The extent of growth inhibition and potential cell kill was assessed by comparing the ATP levels (measured using CellTiterGlo, Promega) in compound-treated cells with those present at the time of compound addition. […] 100%, 0% and −100% signify absence of growth inhibition, growth stasis, and complete cell kill, respectively. Compound concentrations leading to half-maximal growth inhibition (G150) and residual cell viability at the highest tested compound concentration (Data (cmax), expressed in percent) were routinely calculated. Data analysis can also be carried out using commercially available software designed to derive IC50 values using 4-parameter fits (e.g. GraphPad Prism, XL fit). The reported GI50 values are the geometrical means of at least 2 independent replicates.

Chain of WRN helicase (Q14191 517-1238): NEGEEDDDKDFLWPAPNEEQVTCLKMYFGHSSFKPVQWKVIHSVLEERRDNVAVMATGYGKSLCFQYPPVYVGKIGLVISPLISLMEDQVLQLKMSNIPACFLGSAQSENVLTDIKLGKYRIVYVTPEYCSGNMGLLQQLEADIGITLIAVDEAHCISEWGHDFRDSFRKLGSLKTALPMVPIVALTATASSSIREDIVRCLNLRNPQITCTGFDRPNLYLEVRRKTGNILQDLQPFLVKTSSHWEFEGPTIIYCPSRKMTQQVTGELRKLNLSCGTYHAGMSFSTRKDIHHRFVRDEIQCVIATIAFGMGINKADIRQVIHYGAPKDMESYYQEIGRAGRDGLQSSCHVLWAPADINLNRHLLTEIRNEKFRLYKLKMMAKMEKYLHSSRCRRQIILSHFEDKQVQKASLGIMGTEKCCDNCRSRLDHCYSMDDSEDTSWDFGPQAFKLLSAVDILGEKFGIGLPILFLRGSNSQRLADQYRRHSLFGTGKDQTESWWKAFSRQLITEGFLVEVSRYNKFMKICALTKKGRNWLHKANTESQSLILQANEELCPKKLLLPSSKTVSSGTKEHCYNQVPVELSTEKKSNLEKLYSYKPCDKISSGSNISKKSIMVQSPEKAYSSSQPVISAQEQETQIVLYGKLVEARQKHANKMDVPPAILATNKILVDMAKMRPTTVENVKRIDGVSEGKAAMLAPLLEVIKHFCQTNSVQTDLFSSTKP

IC50 (WRN helicase) | GI50 (SW48 cells) | GI50 (DLD1-WRN-KO cells) | SMILES | antitumor response (SW48 xenografts; SW48 xenografts in nude mice) | T/C % value (SW48 xenografts; day 18, SW48 xenografts in nude mice, p<0.05 vs vehicle) | tumor regression (mean tumor volume) (SW48 xenografts; day 18, in the 4/7 surviving animals)
– | – | – | CCc1c(N2CCN(C(=O)c3ncccc3O)CC2)c(=O)n2nc(C3=CCOCC3)nc2n1CC(=O)Nc1ccc(C(F)(F)F)cc1C [Example 58, 2-(2-(3,6-dihydro-2H-pyran-4-yl)-5-ethyl-6-(4-(3-hydroxypicolinoyl)piperazin-1-yl)-7-oxo-[1,2,4]triazolo[1,5-a]pyrimidin-4(7H)-yl)-N-(2-methyl-4-(trifluoromethyl)phenyl)acetamide] | induced an antitumor response | −9% | −26%
30 nM | 10 nM | > 10000 nM | CCc1c(N2CCN(C(=O)c3ncnc(C)c3O)[C@H]3CC[C@@H]32)c(=O)n2nc(C3=CCOCC3)nc2n1CC(=O)Nc1ccc(C(F)(F)F)cc1Cl [Example 125, N-(2-chloro-4-(trifluoromethyl)phenyl)-2-(2-(3,6-dihydro-2H-pyran-4-yl)-5-ethyl-6-((1 S,6S)-5-(5-hydroxy-6-methylpyrimidine-4-carbonyl)-2,5-diazabicyclo[4.2.0]octan-2-yl)-7-oxo-[1,2,4]triazolo[1,5-a]pyrimidin-4(7H)-yl)acetamide] | – | – | –
60 nM | 110 nM | > 10000 nM | CCc1c(N2CCN(C(=O)c3ncnc(C)c3O)CC2)c(=O)n2nc(C3=CCOCC3)nc2n1CC(=O)Nc1ccc(Br)cc1Cl [Example 106, N-(4-bromo-2-chlorophenyl)-2-(2-(3,6-dihydro-2H-pyran-4-yl)-5-ethyl-6-(4-(5-hydroxy-6-methylpyrimidine-4-carbonyl)piperazin-1-yl)-7-oxo-[1,2,4]triazolo[1,5-a]pyrimidin-4(7H)-yl)acetamide] | – | – | –
510 nM | 7940 nM | > 10000 nM | CCc1c(N2CCN(C(=O)c3ncccc3O)CC2)c(=O)n2nc(C3=CCNCC3)nc2n1CC(=O)Nc1ccc(C(F)(F)F)cc1C [Example 112, 2-(5-ethyl-6-(4-(3-hydroxypicolinoyl)piperazin-1-yl)-7-oxo-2-(1,2,3,6-tetrahydropyridin-4-yl)-[1,2,4]triazolo[1,5-a]pyrimidin-4(7H)-yl)-N-(2-methyl-4-(trifluoromethyl)phenyl)acetamide] | – | – | –
1180 nM | 690 nM | > 10000 nM | CCc1c(N2CCN(C(=O)c3ncccc3O)CC2)c(=O)n2nc(C3=CNCCC3)nc2n1CC(=O)Nc1ccc(C(F)(F)F)cc1C [Example 109, 2-(5-ethyl-6-(4-(3-hydroxypicolinoyl)piperazin-1-yl)-7-oxo-2-(1,4,5,6-tetrahydropyridin-3-yl)-[1,2,4]triazolo[1,5-a]pyrimidin-4(7H)-yl)-N-(2-methyl-4-(trifluoromethyl)phenyl)acetamide] | – | – | –
50 nM | 240 nM | 6100 nM | CCc1c(N2CCN(S(=O)(=O)c3ncccc3O)CC2)c(=O)n2nc(C3=CCOCC3)nc2n1CC(=O)Nc1ccc(C(F)(F)F)cc1Cl [Example 137, N-(2-chloro-4-(trifluoromethyl)phenyl)-2-(2-(3,6-dihydro-2H-pyran-4-yl)-5-ethyl-6-(4-((3-hydroxypyridin-2-yl)sulfonyl)piperazin-1-yl)-7-oxo-[1,2,4]triazolo[1,5-a]pyrimidin-4(7H)-yl)acetamide] | – | – | –
